Results as given in patent publication US6525098B1, “6-methoxy-2-naphthylacetic acid prodrugs” (Nobex Corporation, priority 1999, dated 2003).

Experiments:
rat paw edema = test: rat paw edema; type: in vivo
[1] = analysis of blood samples / plasma levels in rats after oral delivery; type: in vivo
Text: FIG. 1 is a graph of in plasma levels of Example 1 compared to Nabumetone.

[2] = oral administration; cited from earlier work

| SMILES | melting point | rat paw edema, % inhibition (rat paw edema) | plasma levels and onset compared to Nabumetone (FIG. 1) [1] | fraction of orally administered nabumetone transferred in vivo into 6MNA [2] |
| --- | --- | --- | --- | --- |
| COc1ccc2cc(CCO)ccc2c1 [Example 1, 2-(6-Methoxy-naphthalen-2-yl)-ethanol] | 110 to 113 °C | 67.5% | higher plasma levels, with more rapid onset | – |
| COc1ccc2cc(CCC(C)=O)ccc2c1 [Nabumetone, nabumetone, reference compound] | – | 60.0% | – | about 35% |
